Measurements: patent publication EP4635969A1, “NOVEL GLUCOCORTICOID, METHOD FOR PREPARING SAME, AND USE THEREOF” (Tianjin Pharmaceutical Biotechnology Co., Ltd., priority 2022, dated 2024)

Legend:
asthma model mice = experiment: Anti-asthma pharmacodynamic experiment: airway hyperresponsiveness (Penh) after methacholine challenge; assay type: in vivo, female BALB/c mice
[1] = tested on: inflammatory cytokines IL-6 and IL-12; experiment: Anti-asthma pharmacodynamic experiment: inflammatory cytokines in bronchoalveolar lavage fluid (ELISA); assay type: in vivo, female BALB/c mice
[2] = Determination of stability in plasma in vitro, mouse plasma (LC-MS/MS); assay type: in vitro ADME; conditions: 37 °C, read-out: Half-life T1/2 (min) in plasma of different species, Mouse plasma
Procedure: (§1) Pharmacological Example 3: Determination of Stability in Plasma in Vitro
(§2) The stock solution was diluted with acetonitrile to obtain a working solution at a concentration of 100 µ M. The solution should be freshly prepared prior to use and maintained at room temperature during application.
(§3) 990 µ L of human and mouse plasma (N = 2) were separately pipetted and pre-incubated at 37 °C for 5 min. Then, 10 µ L of the test compound working solution was added and vortexed thoroughly (the final concentration of the test compound was 1 µ M). Immediately, 50 µ L of the plasma sample was added to 150 µ L of ice-cold precipitation agent containing the internal standard and vortexed thoroughly as the 0-time sample. The remaining plasma sample was continuously incubated at 37 °C, and 50 µ L of the plasma sample was aspirated and added to 150 µ L of ice-cold precipitation agent containing the internal standard at preset sampling time points, followed by thorough vortexing. The collected samples were stored in a freezer at -60 to -90 °C until analysis.
(§4) The concentration of the test compound was determined by LC-MS/MS, and its degradation was monitored. (semi-quantitative determination was conducted by comparing the peak area of the analyte to that of the internal standard).

psoriasis model mice = experiment: Psoriasis experiment (imiquimod model): skin lesion (PASI) score; assay type: in vivo; conditions: for PASI scores: compared with the model group; for PASI score: day 8 of modeling, 0.2 g cream per mouse daily for 7 days (compounds 1 mg/g, fluticasone propionate 0.5 mg/g)
Procedure: (§6) Positive control drug: Fluticasone Propionate Cream (specification: 0.05% × 15 g, Zhejiang Xianju Pharmaceutical Co. Ltd., Lot No. 211106), stored at room temperature protected from light until use.
(§7) Adult mice were selected, and the skin of 2 cm × 3 cm on the back of mice was locally depilated. The mice in the model group and drug administration group were applied with 62.5 mg of 5% imiquimod cream on their back for modeling, while the mice in the blank control group were applied with medical petroleum jelly on their back daily. The above procedures were performed once a day for 7 consecutive days.
(§8) The mice in the drug administration group were applied with the corresponding drugs on their backs daily at a dose of 0.2 g per mouse, while the blank control group and the model group were only applied with 0.2 g of the test sample drug matrix. One hour after drug administration, the drugs were wiped off with sterile cotton swabs, followed by the application of imiquimod. The above procedures were performed once a day for 7 consecutive days.
Referring to the clinical Psoriasis Area and Severity Index (PASI) scoring criteria, erythema, scaling, and thickness at the skin lesion sites were evaluated on a 0-4 scale on day 8 of modeling, and the total score was obtained by summing the three items.
• (1) Erythema: a score of 0 points indicates no erythema, a score of 1 point indicates erythema appearing light red, a score of 2 points indicates erythema appearing red, a score of 3 points indicates erythema appearing dark red, and a score of 4 points indicates erythema appearing extremely deep red; • (2) Scaling: a score of 0 points indicates no scaling on the surface, a score of 1 point indicates partial skin lesions covered with scaling, a score of 2 points indicates most skin lesions covered with scaling, a score of 3 points indicates almost all skin lesions covered with scaling in layers, and a score of 4 points indicates all skin lesions covered with scaling; • (3) Thickness: a score of 0 points indicates skin lesions flush with normal skin, a score of 1 point indicates skin lesions slightly elevated above normal skin surface, a score of 2 points indicates moderate elevation of skin lesions, a score of 3 points indicates thickened skin lesions with obvious elevation, and a score of 4 points indicates highly thickened skin lesions with prominent elevation.
(§9) Statistical analysis was performed using SPSS software, and the results were expressed as mean ± standard deviation. One-way ANOVA was used for intergroup comparisons. For data with homogeneous variance, the LSD test was used; for data with heterogeneous variance, the Dunnett-t test was used. A value of P < 0.05 was considered statistically significant.

[3] = Determination of stability in plasma in vitro, human plasma (LC-MS/MS); assay type: in vitro ADME; conditions: human, human plasma, 1 µM, 37 °C; read-out: Half-life T1/2 (min) in plasma of different species, Human plasma
Procedure: as §1, §2, §3, §4

IL-17 = experiment: Psoriasis experiment (imiquimod model): inflammatory cytokine in serum (ELISA); assay type: in vivo, mice; conditions: for level of IL-17 / inflammatory cytokines in psoriasis model mice: compared with the model group; for IL-17: serum, day 8 of modeling, 0.2 g cream per mouse daily for 7 days
Procedure: as §6, §7, §8
After the PASI scoring on day 8 of modeling, blood was collected from the orbital sinus of mice and centrifuged at 3000 rpm for 10 min. The supernatant was extracted to measure the level of IL-17. All procedures were performed following the instructions of the ELISA kit.
as §9

[4] = molecular target: T1, mineralocorticoid receptor (MR) (Homo sapiens, UniProt P08235); experiment: Assay for agonist activity on mineralocorticoid receptor (luciferase reporter, HEK293 cells transfected with pBIND-MR plasmid); assay type: cell-based
T1 sequence (P08235 726-984): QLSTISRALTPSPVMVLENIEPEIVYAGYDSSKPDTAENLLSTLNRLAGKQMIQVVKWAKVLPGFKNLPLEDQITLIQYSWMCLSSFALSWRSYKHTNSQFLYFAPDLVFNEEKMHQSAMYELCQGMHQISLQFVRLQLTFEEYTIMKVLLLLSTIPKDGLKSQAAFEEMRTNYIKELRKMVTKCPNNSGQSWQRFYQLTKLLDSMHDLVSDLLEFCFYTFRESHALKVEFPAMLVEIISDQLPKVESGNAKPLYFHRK
How it was run: (§5)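 HEK293 cells transiently transfected with pBIND-MR or pBIND-PR, seeded in phenol red-free DMEM with 5% charcoal-stripped serum. Compounds tested as 12-point 4-fold dilutions from 50 µM in duplicate, 0.1% DMSO blank. Luciferase luminescence read, EC50 by nonlinear fit.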

[5] = Pharmacokinetic (PK) experiment in rats; assay type: in vivo, male SD rats; conditions: male, SD, rat, plasma, single
Procedure: Pharmacological Example 11. Pharmacokinetic (PK) Experiment in Rats
The solution was prepared before administration.
Animals: 6 male SD rats, SPF grade (Beijing Vital River Laboratory Animal Technology Co., Ltd.).
Animal grouping: The animals were weighed prior to administration, and the dosage was calculated based on body weight. The animals in the oral administration group were fasted overnight (10-14 hours) before administration, and food was reintroduced 4 hours post-administration. Table 23. Animal grouping and drug administration dosages for pharmacokinetic (PK) experiment in rats
Blood collection time points: Blood was collected from the jugular vein at 2 min, 5 min, 15 min, 30 min, 1 h, 2 h, 4 h, 8 h, and 24 h after administration. Approximately 0.25 mL of blood was collected for each sample, anticoagulated with heparin sodium, and then placed on ice immediately.
Plasma sample processing: Blood samples were placed on ice after collection and centrifuged to separate plasma within 1 hour (centrifugation conditions: 6000 rpm, 3 minutes, 2-8 °C ). Plasma samples were stored in a -80°C freezer before analysis.
Data processing: Pharmacokinetic parameters were calculated using Phoenix WinNonlin 8.2.0 based on the plasma drug concentration data at different time points.

[6] = molecular target: T2, progesterone receptor (PR) (Homo sapiens, UniProt P06401); experiment: Assay for agonist activity on progesterone receptor (luciferase reporter, HEK293 cells transfected with pBIND-PR plasmid); assay type: cell-based
T2 sequence (P06401 678-933): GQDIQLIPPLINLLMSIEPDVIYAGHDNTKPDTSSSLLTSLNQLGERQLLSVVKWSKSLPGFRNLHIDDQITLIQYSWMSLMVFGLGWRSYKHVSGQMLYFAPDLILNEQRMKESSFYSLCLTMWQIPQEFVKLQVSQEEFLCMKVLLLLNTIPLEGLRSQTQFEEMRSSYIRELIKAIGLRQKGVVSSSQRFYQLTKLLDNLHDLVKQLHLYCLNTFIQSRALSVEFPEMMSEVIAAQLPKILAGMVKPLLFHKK
How it was run: as §5

[7] = Stability in animal lung tissue homogenate, skin tissue homogenate and aqueous humor; assay type: in vitro ADME
[8] = tested on: inflammatory bowel disease model rats; experiment: Inflammatory bowel disease experiment (TNBS model): macroscopic injury score of the colon; assay type: in vivo; conditions: colon, day 5 after TNBS; 2 mg/kg once a day (compounds intraintestinally, dexamethasone by gavage)
Procedure: Pharmacological Example 7: Pharmacodynamic Experiment on Inflammatory Bowel Disease in Rats
Test samples: The jet-milled compounds 23 and 34 were accurately weighed and prepared as 2 mg/mL clear solutions using anhydrous ethanol, respectively. The solutions were then diluted to 0.2 mg/mL with double-distilled water as the test samples, and stored at room temperature protected from light until use.
Animals in Groups 2 to 5 were subjected to trinitrobenzene sulfonic acid (TNBS) modeling as follows: A 5% TNBS aqueous solution was adjusted to 20 mg/mL TNBS (50% ethanol solution) with alcohol and water. After fasting for 24 h, the rats were anesthetized using an inhalation anesthesia machine. A silicone hose was inserted approximately 8 cm into the anus, and then TNBS was injected at a dose of 50 mg/kg. After injection, the rats were placed vertically for 1 min to prevent the backflow of TNBS solution. Then, the rats were placed into their cages for observation until the animals recovered.
Drug administration started one day before modeling, with one dose administered 1 hour before modeling and then once a day for 5 consecutive days. […] Table 14. Animal grouping and drug administration dosages
The experiment ended on day 5 after TNBS modeling. After isoflurane anesthesia, blood was collected from the hearts, and the rats were euthanized. The abdominal cavity was rapidly opened, and the macroscopic injury scoring of the colon in rats was performed based on the adhesion, obstruction, thickening of the colonic wall, colonic congestion, and necrosis in the colon area. After clearing the colonic contents, the colonic samples were longitudinally incised. The proximal 2/3 of the colon was excised, prepared into Swiss rolls, and stored in 4% neutral buffered formalin for histopathological analysis. Tissues were trimmed, dehydrated, paraffin-embedded, and sectioned (approximately 5 µm thickness), stained with hematoxylin-eosin (HE), and observed for pathological changes. Pathologists performed blind scoring of colonic lesions.
Quantitative indices were first subjected to Bartlett's test for homogeneity of variance. When the variance was homogeneous (P > 0.05), one-way analysis of variance (ANOVA) was used for a statistical test; if there was statistical significance (P ≤ 0.05), Dunnett's t-test (Dunnett method) was used to compare intergroup differences; if there was no statistical significance (P > 0.05), the statistical analysis was concluded. When the variance was heterogeneous (P ≤ 0.05), Kruskal-Wallis H rank-sum test (K-W method) was used for statistical analysis: if there was statistical significance (P ≤ 0.05), Mann-Whitney U test (M-W method) was further performed to compare intergroup differences; if there was no statistical significance (P > 0.05), the statistical analysis was concluded.

[9] = after entering the systemic circulation; cited from earlier work
[10] = bronchoalveolar lavage fluid, 0.3 mg/mL, 50 µL intratracheally once daily for 3 days

C[C@]12C=CC(=O)C=C1[C@@H](F)C[C@H]1[C@@H]3C[C@H]4OC(c5ccc(CSC6CCOC6=O)cc5)O[C@@]4(C(=O)CO)[C@@]3(C)C[C@H](O)[C@@]12F (stereo partly drawn) [Compound 8, (2S,6aS,6bR,7S,8aS,8bS,11aR,12aS,12bS)-2,6b-Difluoro-7-hydroxy-8b-(2-hydroxyacetyl)-6a,8a-dimethyl-10-(4-(((2-oxotetrahydrofuran-3-yl)thio)methyl)phenyl)-1,2,6a,6b,7,8,8a,8b,11a,12,12a, 12b-dodecahydro-4H-naphtho[2',1':4,5]indeno[1,2-d][1,3]dioxol-4-one]
Penh values in mice, Methacholine concentration (mg/ml) 0 (asthma model mice; 0.3 mg/mL, 50 µL intratracheally once daily for 3 days, methacholine 0 mg/ml): 1.17 ± 0.23
Penh values in mice, Methacholine concentration (mg/ml) 6.25 (asthma model mice; 0.3 mg/mL, 50 µL intratracheally once daily for 3 days, methacholine 6.25 mg/ml): 1.78 ± 0.46
Penh values in mice, Methacholine concentration (mg/ml) 12.5 (asthma model mice; 0.3 mg/mL, 50 µL intratracheally once daily for 3 days, methacholine 12.5 mg/ml): 2.07 ± 0.66
Effects on airway hyperresponsiveness (Penh values) in mice (asthma model mice; compared with the model group): significantly decreased the Penh values in mice
IL-6 [1, 10]: 19.9 ± 5.3 pg/mL
IL-12 [1, 10]: 20.1 ± 7.1 pg/mL
Effects on inflammatory cytokines in bronchoalveolar lavage fluid of mice ([1]; compared with the model group): extremely significantly decreased the levels of IL-6 and IL-12 in mice
half-life at 1 µM [2]: < 30 min
PASI scores (psoriasis model mice): PASI scores significantly decreased on day 7
PASI score (psoriasis model mice): 4.8 ± 1.3
half-life at 1 µM [3]: < 30 min
level of IL-17 / inflammatory cytokines in psoriasis model mice (IL-17): significantly decreased the level of IL-17
IL-17 (IL-17): 53.35 ± 64.19 pg/mL
EC50 [4]: > 50 µM
AUC(0-t) ([5]; iv, 2 mg/kg): 106 ± 35.9 ng·h/mL
half-life ([5]; iv, 2 mg/kg): < 0.5 h
AUC(0-t) ([5]; po, 10 mg/kg, gavage): < 70 ng·h/mL
half-life ([5]; po, 10 mg/kg, gavage): 5.21 ± 3.17 h
Cmax ([5]; IV, 2 mg/kg): 924 ± 504 ng/mL
Cmax ([5]; PO, 10 mg/kg, gavage): 23.5 ± 14.4 ng/mL
EC50 [6]: > 50 µM
stability in animal lung tissue homogenate, skin tissue homogenate, and aqueous humor [7]: relatively stable

C[C@@H]1C[C@H]2[C@@H]3CCC4=CC(=O)C=C[C@]4(C)[C@@]3(F)[C@@H](O)C[C@]2(C)[C@@]1(O)C(=O)CO [Dexamethasone, reference compound]
Macroscopic injury score [8]: 5.00 ± 0.66

CCC(=O)O[C@]1(C(=O)SCF)[C@H](C)C[C@H]2[C@@H]3C[C@H](F)C4=CC(=O)C=C[C@]4(C)[C@@]3(F)[C@@H](O)C[C@@]21C [Fluticasone propionate, reference compound]
PASI scores (psoriasis model mice): PASI scores significantly decreased on day 7
PASI score (psoriasis model mice): 4.0 ± 0.6
level of IL-17 / inflammatory cytokines in psoriasis model mice (IL-17): significantly decreased the level of IL-17
IL-17 (IL-17): 25.04 ± 10.02 pg/mL
plasma half-life in the human body [9]: 3 h
